Measurements taken from article PMC9090141 (Pediatric blood & cancer, 2021).
Where “and” joins values, the source holds several entries; their conditions need not be identical. Identical values can stand only once. Entries after “also recorded” stand apart in the source; their conditions may differ. Counter-ions that a name gives are not always drawn. Like-named read-outs stand apart in the source and are kept apart here.

Key:
[1] = Plasma pharmacokinetics in cycle 1; format: in vivo, human; conditions: for Tmax / half-life / concentration at 24 h / AUC(0-inf) / AUC(0-t) / Cmax: plasma; for concentration at 24 h: RP2D (150 mg/m^2)
[2] = tested on: adults with advanced or metastatic solid tumors; conditions: cited from earlier work
[3] = adults, 105 mg/m^2, cited from earlier work
[4] = 80 mg/m^2 IV over 60 min, first dose cycle 1, 6 patients
[5] = 100 mg/m^2 IV over 60 min, first dose cycle 1, 6 patients
[6] = 125 mg/m^2 IV over 60 min, first dose cycle 1, 5 patients
[7] = 150 mg/m^2 IV over 60 min, first dose cycle 1, 12 patients
[8] = All Patients (80-150 mg/m^2), first dose cycle 1, 29 patients

In the case of `COc1cccc(OCCCN)c1-c1cc(Nc2cnc(C#N)cn2)n[nH]1` [prexasertib, Prexasertib mesylate monohydrate], the CLp [1, 4] is reported as 48.2 ± 11.5 L/hr/m^2, the Vss [1, 4] is reported as 245 ± 67 L/m^2 and the CLp [1, 5] is reported as 45.1 L/hr/m^2 and 45.1 ± 12.6 L/hr/m^2. The Vss [1, 5] was 332 ± 85 L/m^2, the CLp [1, 6] was 49.3 ± 10.3 L/hr/m^2 and the Vss [1, 6] was 292 ± 169 L/m^2. For the same molecule, the CLp [1, 7] was 44.4 L/hr/m^2 and 44.4 ± 13.5 L/hr/m^2, the Vss [1, 7] was 257 ± 98 L/m^2 and the “exposure relative to the adult RP2D” value ([1]; 150 mg/m^2 vs RP2D from either adult study) was “twice the exposure”. For the same molecule, the “dose proportionality / linearity of PK” value ([1]; 80–150 mg/m^2 dose range, single dose) was “linear; also recorded: proportional to dose”, the CLp [1, 8] was 46.1 ± 12.0 L/hr/m^2 and the Vss [1, 8] was 276 ± 102 L/m^2. For the same molecule, the BSA-adjusted plasma clearance ([1]; children <12 years (N=16)) was 49.4 ± 10.0 L/hr/m^2, the plasma clearance ([1]; females (N=9)) was 47.1 ± 9.7 L/hr/m^2 and the “time plasma concentrations maintained above the IC50 for pCHK1 inhibition” value ([1]; human, in vivo) was “approximately 24 hours”. The Tmax ([1]; human, intravenous) was 1.2 ± 0.5 h, the half-life ([1]; human, intravenous) was 8.9 ± 3.4 h and the concentration at 24 h ([1]; human, intravenous, 150 mg/m^2, median plasma concentration 24 hours after the first dose (C-24h)) was 13.4 ng/mL. For the same molecule, the concentration at 24 h ([1]; human, intravenous, 150 mg/m^2, range of plasma concentration 24 hours after the first dose (C-24h)) was 7.6 to 43.6 ng/mL, the AUC(0-inf) ([1]; human, iv, 80 mg/m2) was 1730 ± 387 ng·h/mL and the AUC(0-t) ([1]; human, iv, 80 mg/m2) was 1620 ± 358 ng·h/mL. The Cmax ([1]; human, iv, 80 mg/m2) was 858 ± 311 ng/mL, the Tmax ([1]; human, iv, 80 mg/m2) was 1.4 ± 0.9 h and the half-life ([1]; human, iv, 80 mg/m2) was 7.6 ± 2.3 h. The AUC(0-inf) ([1]; human, iv, 100 mg/m2) was 2380 ± 712 ng·h/mL, the AUC(0-t) ([1]; human, iv, 100 mg/m2) was 2010 ± 416 ng·h/mL and the Cmax ([1]; human, iv, 100 mg/m2) was 984 ± 289 ng/mL. For the same molecule, the Tmax ([1]; human, iv, 100 mg/m2) was 1.1 ± 0.2 h, the half-life ([1]; human, iv, 100 mg/m2) was 10 ± 3.9 h and the AUC(0-inf) ([1]; human, iv, 125 mg/m2) was 2640 ± 632 ng·h/mL. For the same molecule, the AUC(0-t) ([1]; human, iv, 125 mg/m2) was 2460 ± 545 ng·h/mL, the Cmax ([1]; human, iv, 125 mg/m2) was 1230 ± 212 ng/mL and the Tmax ([1]; human, iv, 125 mg/m2) was 1.1 ± 0.1 h. For the same molecule, the half-life ([1]; human, iv, 125 mg/m2) was 8.5 ± 4.5 h, the AUC(0-inf) ([1]; human, iv, 150 mg/m2) was 3680 ± 1060 ng·h/mL and the AUC(0-t) ([1]; human, iv, 150 mg/m2) was 3360 ± 898 ng·h/mL. It also gave a Cmax ([1]; human, iv, 150 mg/m2) of 1700 ± 822 ng/mL, a Tmax ([1]; human, iv, 150 mg/m2) of 1.2 ± 0.5 h and a half-life ([1]; human, iv, 150 mg/m2) of 9.2 ± 3.5 h. The plasma clearance ([1]; males (N=20)) was 45.6 ± 13.1 L/hr/m^2, the BSA-adjusted plasma clearance ([1]; ≥12 years (N=13)) was 42.2 ± 13.3 L/hr/m^2 and the “dose-limiting toxicities at the adult RP2D” value ([2]; 105 mg/m^2 IV once every 14 days) was “no dose-limiting toxicities”. The “adult recommended Phase 2 dose (RP2D)” value ([2]; IV once every 14 days) was 105 mg/m^2, the “mean AUC0–24h” value ([3]; ref Hong et al. [11]) was 1130 ng·h/mL and the “mean AUC0–24h” value ([3]; ref Iwasa et al. [20]) was 1690 ng·h/mL.
